For five compounds, T/C results are on record in PubChem BioAssay AID226 (DTP/NCI, 2004).

The test deals with B6C3F1 mice, intracerebral ependymoblastoma, median survival T/C. Nature of the test: NCI In Vivo Anticancer Drug Screen. Data for tumor model Ependymoblastoma (intracerebral) in B6C3F1 mice. The settings on record: endpoint: median survival time, higher = longer survival. How it is done: The antitumor activity of compounds was measured in mice bearing transplantable tumors. Survival or tumor size were measured and the results are expressed as the measurement made in the treated group (T) divided by the measurement made in the vehicle treated control group (C). The tumor model used in this assay is Ependymoblastoma (intracerebral) in B6C3F1 mice

Where [1] appears, read: dose: 2.0 mg/kg/injection, schedule: Q#A X002 (ip), vehicle: saline + alcohol.
Setting [2] is: dose: 4.0 mg/kg/injection, schedule: Q01DX001 (ip), vehicle: saline + alcohol.
Where [3] appears, read: dose: 4.0 mg/kg/injection, schedule: Q01DX005 (oral), vehicle: saline + alcohol.
The mark [4] stands for this setting: dose: 4.0 mg/kg/injection, schedule: Q## X006 (ip), vehicle: saline + alcohol.
[5] abbreviates: dose: 4.0 mg/kg/injection, schedule: Q#A X002 (ip), vehicle: saline + alcohol.
Where [6] appears, read: dose: 8.0 mg/kg/injection, schedule: Q01DX001 (ip), vehicle: saline + alcohol.
[7] abbreviates: dose: 8.0 mg/kg/injection, schedule: Q## X004 (ip), vehicle: saline + alcohol.
Setting [8] is: dose: 8.0 mg/kg/injection, schedule: Q## X006 (ip), vehicle: saline + alcohol.
[9] abbreviates: dose: 16.0 mg/kg/injection, schedule: Q01DX001 (oral), vehicle: saline + alcohol.
Where [10] appears, read: dose: 16.0 mg/kg/injection, schedule: Q01DX005 (oral), vehicle: saline + alcohol.
The mark [11] stands for this setting: dose: 32.0 mg/kg/injection, schedule: Q01DX001 (ip), vehicle: saline + alcohol.
Setting [12] is: dose: 32.0 mg/kg/injection, schedule: Q01DX001 (oral), vehicle: saline + alcohol.
Setting [13] is: dose: 32.0 mg/kg/injection, schedule: Q01DX005 (oral), vehicle: saline + alcohol.
[14] abbreviates: dose: 64.0 mg/kg/injection, schedule: Q01DX001 (oral), vehicle: saline + alcohol.
Where [15] appears, read: dose: 128.0 mg/kg/injection, schedule: Q01DX001 (oral), vehicle: saline + alcohol.
[16] abbreviates: dose: 256.0 mg/kg/injection, schedule: Q01DX001 (oral), vehicle: saline + alcohol.

Molecules are shown by their SMILES. Several values for one entry are separate records, joined by “and”; a condition that tells them apart may be missing. Equal values may be shown once. Toxic doses and inconclusive results are not listed.

`COC1OC(CO)C(O)C(NC(=O)N(C)N=O)C1O` (stereo not drawn): the T/C reads like this: (dose: 0.5 mg/kg/injection, schedule: Q01DX005 (ip), vehicle: saline) 101 % of control; (dose: 1.0 mg/kg/injection, schedule: Q01DX005 (ip), vehicle: saline + alcohol) 100 % of control; (dose: 1.0 mg/kg/injection, schedule: Q01DX005 (ip), vehicle: saline) 103 % of control; (dose: 1.0 mg/kg/injection, schedule: Q## X004 (ip), vehicle: saline + alcohol) 113 % of control; (dose: 1.0 mg/kg/injection, schedule: Q## X006 (ip), vehicle: saline + alcohol) 116 % of control; (dose: 2.0 mg/kg/injection, schedule: Q01DX005 (ip), vehicle: saline + alcohol) 109 % of control. Further, the T/C runs as follows: (dose: 2.0 mg/kg/injection, schedule: Q01DX005 (ip), vehicle: saline) 119 % of control; (dose: 2.0 mg/kg/injection, schedule: Q## X004 (ip), vehicle: saline + alcohol) 115 % of control; under setting [1], 107 % of control; under setting [2], 94 % of control and 100 % of control and 110 % of control; (dose: 4.0 mg/kg/injection, schedule: Q01DX005 (ip), vehicle: saline + alcohol) 107 % of control; (dose: 4.0 mg/kg/injection, schedule: Q01DX005 (ip), vehicle: saline) 108 % of control. The T/C under setting [3] is 115 % of control; the T/C (dose: 4.0 mg/kg/injection, schedule: Q## X004 (ip), vehicle: saline + alcohol) was 118 % of control; the T/C under setting [4] was 113 % of control; the T/C under setting [5] is 97 % of control; the T/C under setting [6] was 97 % of control and 106 % of control and 113 % of control; the T/C (dose: 8.0 mg/kg/injection, schedule: Q01DX005 (ip), vehicle: saline) is 103 % of control. In addition, the T/C reads like this: (dose: 8.0 mg/kg/injection, schedule: Q01DX005 (oral), vehicle: saline + alcohol) 113 % of control; under setting [7], 119 % of control; under setting [8], 118 % of control; (dose: 8.0 mg/kg/injection, schedule: Q#A X002 (ip), vehicle: saline + alcohol) 95 % of control; (dose: 16.0 mg/kg/injection, schedule: Q01DX001 (ip), vehicle: saline + alcohol) 91 % of control and 112 % of control and 117 % of control; under setting [9], 95 % of control and 108 % of control and 113 % of control. Further, the T/C reads like this: (dose: 16.0 mg/kg/injection, schedule: Q01DX005 (ip), vehicle: saline + alcohol) 121 % of control; under setting [10], 101 % of control; (dose: 16.0 mg/kg/injection, schedule: Q#A X002 (ip), vehicle: saline + alcohol) 109 % of control; under setting [11], 100 % of control and 103 % of control and 108 % of control; under setting [12], 91 % of control and 95 % of control and 117 % of control; under setting [13], 101 % of control. Besides, the T/C (dose: 32.0 mg/kg/injection, schedule: Q#A X002 (ip), vehicle: saline + alcohol) is 100 % of control; the T/C (dose: 64.0 mg/kg/injection, schedule: Q01DX001 (ip), vehicle: saline + alcohol) was 103 % of control (2×) and 119 % of control; the T/C under setting [14] is 106 % of control and 107 % of control and 109 % of control; the T/C under setting [15] was 107 % of control and 112 % of control and 123 % of control; the T/C under setting [16] is 107 % of control and 119 % of control.

Regarding `CN(N=O)C(N)=O`, the T/C reads like this: (dose: 0.5 mg/kg/injection, schedule: Q01DX005 (ip), vehicle: saline + alcohol) 98 % of control and 101 % of control and 107 % of control; (dose: 1.56 mg/kg/injection, schedule: Q01DX009 (ip), vehicle: saline) 161 % of control; under setting [1], 115 % of control; (dose: 3.12 mg/kg/injection, schedule: Q01DX009 (ip), vehicle: saline) 161 % of control; under setting [2], 118 % of control and 120 % of control; under setting [3], 150 % of control. Further, the T/C under setting [4] was 156 % of control; the T/C under setting [5] is 113 % of control; the T/C (dose: 6.25 mg/kg/injection, schedule: Q01DX009 (ip), vehicle: saline) is 164 % of control; the T/C under setting [6] is 121 % of control; the T/C under setting [7] is 150 % of control; the T/C under setting [8] is 156 % of control. In addition, the T/C is, setting by setting: (dose: 10.0 mg/kg/injection, schedule: Q01DX001 (ip), vehicle: saline + alcohol) 157 % of control; under setting [9], 123 % of control; (dose: 16.0 mg/kg/injection, schedule: Q01DX005 (ip), vehicle: Klucel (hydroxypropylcellulose) (HPC)) 118 % of control; under setting [10], 150 % of control; (dose: 16.0 mg/kg/injection, schedule: Q## X006 (ip), vehicle: saline + alcohol) 162 % of control; (dose: 20.0 mg/kg/injection, schedule: Q01DX001 (ip), vehicle: saline + alcohol) 157 % of control. Also, the T/C under setting [11] was 116 % of control; the T/C under setting [12] was 118 % of control; the T/C under setting [13] is 94 % of control; the T/C (dose: 32.0 mg/kg/injection, schedule: Q## X004 (ip), vehicle: saline + alcohol) is 178 % of control; the T/C (dose: 40.0 mg/kg/injection, schedule: Q01DX001 (ip), vehicle: saline + alcohol) was 161 % of control; the T/C (dose: 40.0 mg/kg/injection, schedule: Q01DX001 (ip), vehicle: saline) is 122 % of control. Further, the T/C reads like this: under setting [14], 111 % of control; (dose: 80.0 mg/kg/injection, schedule: Q01DX001 (ip), vehicle: saline + alcohol) 183 % of control; under setting [15], 107 % of control and 121 % of control; under setting [16], 112 % of control.

`F`: the T/C is, setting by setting: (dose: 16.0 mg/kg/injection, schedule: Q01DX005 (ip), vehicle: saline) 112 % of control; (dose: 32.0 mg/kg/injection, schedule: Q01DX005 (ip), vehicle: saline) 107 % of control; (dose: 64.0 mg/kg/injection, schedule: Q01DX005 (ip), vehicle: saline) 105 % of control.

`NC(=O)c1csc(C2OC(CO)C(O)C2O)n1` (stereo not drawn): the T/C runs as follows: (dose: 9.38 mg/kg/injection, schedule: Q01DX009 (ip), vehicle: saline) 96 % of control; (dose: 18.8 mg/kg/injection, schedule: Q01DX009 (ip), vehicle: saline) 107 % of control; (dose: 37.5 mg/kg/injection, schedule: Q01DX005 (ip), vehicle: saline) 93 % of control and 110 % of control; (dose: 37.5 mg/kg/injection, schedule: Q01DX009 (ip), vehicle: saline) 99 % of control and 110 % of control; (dose: 75.0 mg/kg/injection, schedule: Q01DX005 (ip), vehicle: saline) 101 % of control and 107 % of control; (dose: 75.0 mg/kg/injection, schedule: Q01DX009 (ip), vehicle: saline) 112 % of control and 121 % of control. The T/C (dose: 150.0 mg/kg/injection, schedule: Q01DX005 (ip), vehicle: saline) was 113 % of control and 116 % of control; the T/C (dose: 150.0 mg/kg/injection, schedule: Q01DX009 (ip), vehicle: saline) is 110 % of control and 119 % of control; the T/C (dose: 300.0 mg/kg/injection, schedule: Q01DX005 (ip), vehicle: saline) is 108 % of control and 114 % of control; the T/C (dose: 300.0 mg/kg/injection, schedule: Q01DX009 (ip), vehicle: saline) was 114 % of control; the T/C (dose: 600.0 mg/kg/injection, schedule: Q01DX005 (ip), vehicle: saline) is 101 % of control and 114 % of control; the T/C (dose: 600.0 mg/kg/injection, schedule: Q01DX009 (ip), vehicle: saline) was 123 % of control.

For `O=C(O)c1ccc(C(=O)O)c(C(=O)O)c1.[NH-]C1CCCCC1[NH-].[Pt+2]`, the T/C reads like this: (dose: 0.25 mg/kg/injection, schedule: Q01DX005 (ip), vehicle: dextrose) 92 % of control and 101 % of control; (dose: 0.5 mg/kg/injection, schedule: Q01DX005 (ip), vehicle: dextrose) 100 % of control and 118 % of control; (dose: 1.0 mg/kg/injection, schedule: Q01DX005 (ip), vehicle: dextrose) 95 % of control and 100 % of control; (dose: 2.0 mg/kg/injection, schedule: Q01DX005 (ip), vehicle: dextrose) 100 % of control and 105 % of control; (dose: 4.0 mg/kg/injection, schedule: Q01DX005 (ip), vehicle: dextrose) 98 % of control and 114 % of control.
